From patent publication US9119396B2, “Method for promoting plant growth” (SUMITOMO CHEMICAL COMPANY, LIMITED, priority 2011, dated 2015)

Tests used:
Assay type in all cases: in vivo
[1] = system: Rice (cultivar: Nipponbare); test: Test Example 1: promotion of root growth in hydroponics of rice; conditions: 1 ppm, 3 days germination + 3 days cultivation, average of 4 or 5 individuals
Method: Evaluation Test for Promotion of Root Growth in Hydroponics of Rice Rice (cultivar: Nipponbare) A 1/10,000 volume of each DMSO solution containing each of the present compounds 1 to 4 at 10,000 ppm was added to a Hoagland solution for hydroponics (Hoagland and Amon, California Agricultural Experiment Station 1950 Circular 347 pp. 34) at ¼ concentration to obtain a solution for hydroponics containing each of the present compounds 1 to 4 at 1 ppm. These solutions were used in the treated-group. In a non-treated group, a solution for hydroponics obtained by adding a Hoagland solution for hydroponics at ¼ concentration to a 1/10,000 volume of DMSO was used. The rice seeds were immersed in an aqueous solution of 1% sodium hypochlorite for 10 minutes, followed by 70% ethanol solution to sterilize their surfaces. After that, the seeds were washed with distilled water. The sterilized seeds were immersed in each solution for hydroponics containing the test compound at 1 ppm, and incubated at a temperature of 28° C. for 3 days under dark conditions to stimulate the germination of the seeds. Then, 30 ml of each solution for hydroponics containing the test compound at 1 ppm was dispensed into a plastic tube (20 mm in diameter×113 mm in height) covered with a cardboard on the lateral surface for blocking a light. A float made of a styrene board and a vinyl mesh was placed on the water surface of each solution for hydroponics, and the rice seeds obtained after the stimulation of germination were placed on the float. The seeds were cultivated for 3 days under the conditions of an illuminance of 4,000 lux at the top of the tube, a temperature of 26° C., a humidity of 50%, and a day length of 16 hours. The root length of the rice seedlings obtained after the cultivation was measured by using WinRHIZO system (manufactured by REGENT INSTRUMENTS). The average value of the root length in the treated group was calculated from the measurement values of 4 or 5 individuals. As a result, the root length in the treated group, wherein the plants were treated with the present compound 1, 2, 3 or 4 (at a concentration of 1 ppm in each case), was much longer than that in the non-treated group.

Wheat (cultivar: Apogee) [2] = test: Test Example 7: reduction of high-temperature stress by spraying treatment of wheat; conditions: spray solution 100 ppm, high-temperature stress 36° C./32° C. 7 days, 60 days after sowing
Method: (§1) Evaluation Test for Reduction of High-Temperature Stress by Spraying Treatment of Wheat
(§2) Five wheat seeds were sown in the culture soil (AISAI) in each plastic pot and cultivated for 28 days in an artificial weather control room under the conditions of a temperature of 18° C. in daytime/15° C. in night, and an illuminance of 7,000 lux. Before the stress test, 3 individuals per pot were removed.
(§3) To 0.5 mg of the present compound 1 were added 120 mg of a mixture (weight ratio 1:1) of white carbon and ammonium polyoxyethylene alkyl ether sulfate and 300 μl of water. The mixture was finely ground by a wet grinding method to obtain a flowable formulation of the present compound 1. This flowable formulation was diluted with 50 ml of water. The mixture was diluted with RINO (manufactured by NIHON NOHYAKU CO., LTD) as a spreading agent to 5,000-fold dilution to obtain a spray solution containing 100 ppm of the present compound 1. […]
After the high-temperature stress treatment, the plants were cultivated in an artificial weather control room under the conditions of a temperature of 18° C. in daytime/15° C. in night, and a illuminance of 7,000 lux. Then, 60 days after the sowing, the fresh weight of seeds in ears of the tested plants in 7 or 8 pots were measured, and the average values of the weight of seeds of ears per one pot (3 individuals) were calculated. […]

Wheat (cultivar: Apogee) [3] = test: Test Example 10: reduction of high-temperature stress by spraying treatment of wheat; conditions: spray solution 1 ppm, high-temperature stress 36° C./32° C. 7 days, 90 days after the stress treatment
Method: as §1, §2
as §3, with “500” for “50”, “1” for “100”
After the high-temperature stress treatment, the plants were cultivated in an artificial weather control room under the conditions of a temperature of 18° C. in daytime/15° C. in night, and a illuminance of 7,000 lux. Then, 90 days after the high-temperature stress treatment, the number and the weight of seeds in ears of the tested plants in 7 or 8 pots were measured, and the average values of the number and the weight of seeds per one ear were calculated. […]

COC(=O)c1cc2cc(C(F)(F)F)ccc2s1 [compound 1]
root length of the rice seedlings vs non-treated group [1]: much longer
fresh weight of seeds of ears vs non-treated group (Wheat (cultivar: Apogee) [2]): much larger
number of seeds per one ear vs non-treated group (Wheat (cultivar: Apogee) [3]): much larger
weight of seeds per one ear vs non-treated group (Wheat (cultivar: Apogee) [3]): much larger
